From patent US5814634A, “Alkylenediamine derivative anti-ulcer drug and antibacterial drug” (Shiseido Co. Ltd., priority 1996, dated 1998)
Like-named read-outs stand apart in the source and are kept apart here.

Assays:
stress ulcer = assay: WIS: Restraint and Water Immersion Stress-Induced Ulcer Inhibition Test; assay type: in vivo, rat (male Crj:SD or Slc:SD); settings: 100 mg/kg oral, rats, water immersion stress 7 hours
Protocol: WIS: Restraint and Water Immersion Stress-Induced Ulcer Inhibition Test
The degree of inhibition of the stress ulcer formation is tested.
Male Crj:SD or Slc:SD rats (6 to 7-week-old) were fasted overnight, but allowed free access to water. Each group has 5 to 8 of these rats. The sample compound was dissolved or suspended in an aqueous solution of 0.3% sodium carboxymethylcellulose or 0.05% Tween 80 and then was orally administered (100 mg/10 ml/kg). To a control group, the vehicle was administered. 10 minutes later, the rats were placed in a stress cage and immersed to the level of xipfoid process in a water bath (21° C.) for 7 hours. At the end of the stress, the rats were sacrificed by inhalation of ether or carbon dioxide. Then, the stomach of each was removed, inflated by injecting 10 ml of 5% formalin neutral buffer solution, and immersed in 1% formalin neutral buffer solution for 30 minutes or more to be fixed. The stomach was incised along the greater curvature and then the length of each erosion in the glandular portion was determined under dissecting microscope. The sum of the length of erosions per stomach was defined as ulcer index (UI).
(§1) The effect obtained when 100 mg/kg of the sample compound had been administered was expressed as ulcer formation inhibitory rate (%) as follows: [formula] VOL, TAO: Acid Secretion Inhibition Test In Vivo i) Meaning

Male Slc:ICR mice = system: Male Slc:ICR mice; parameters: species or system mouse (male Slc:ICR); settings: mouse, in vivo
Protocol: AT: Single Dose Toxicity Pretest
Male Slc:ICR mice (5-week-old) were used. Each group has 3 to 5 mice and each mouse was fasted, but allowed free access to water, for 4 to 5 hours from 9 a.m. in the test day. Then, 2,000 mg/10 ml/kg of the sample compound dissolved or suspended in an aqueous solution of 0.5% sodium carboxymethyl cellulose was orally administered thereto. To a control, only the vehicle was administered. […] The body weight was measured before and after the fasting as well as at the same time everyday. The dead animals were immediately subjected to autopsy and their organs were observed microscopically. Also, the living animals were sacrificed with ether or carbon dioxide one week after the administration and then their organs were observed microscopically.
The toxicity at the single dose of 2,000 mg/kg of the sample compound was expressed as being classified into 5 levels.
5: Mortality rate is 0%; no toxicity is found at all both in behavior and organs.
4: Mortality rate is 0%; while no toxicity is found in organs, slight toxicity is observed in behavior and body weight increase.
3: While there is a dead animal (though not all the animals are dead), no toxicity is found in organs.
2: Regardless of whether there is a dead animal or not, toxicity is found in organs.
1: All the animals are dead.

acid secretion in vivo = assay: VOL, TAO: Acid Secretion Inhibition Test In Vivo; parameters: species or system rat (male Crj:Donryu); settings: 100 mg/kg oral, pylorus-ligated rats, histamine 30 mg/kg s.c.
Protocol: as §1
Inhibitory effect on acid secretion in vivo is confirmed.
Male Crj:Donryu rats (7-week-old) were fasted overnight but allowed free access to water. In each group, 8 to 10 of these rats were used under urethane anesthesia (1.25 g/kg). The sample compound dissolved or suspended in an aqueous solution of 0.5% sodium carboxymethylcellulose or 0.05% Tween 80 was orally administered (100 mg/10 ml/kg). 30 minutes later, the abdomen of each was incised and the pylorus was ligated. 30 minutes after the ligation, 30 mg/kg of histamine dissolved in physiological saline was subcutaneously administered and, 3 hours thereafter, the rat was sacrificed with carbon dioxide. Immediately thereafter, each stomach was removed and the gastric contents were collected and each volume was determined. The total acid output was determined by titration of the gastric juice with 0.1N NaOH.
(§2) With respect to the gastric juice volume (VOL) and the total acid output (TAO), the effects obtained when 100 mg/kg of the sample compound had been administered were expressed as their respective inhibitory rates (%) as follows: [formula] CAP: Acid Secretion Inhibition Test In Vitro i) Meaning

[1] = system: isolated gastric fundic gland; assay: CAP: Acid Secretion Inhibition Test In Vitro ([14C]-aminopyrine uptake); assay type: cell-based, rabbit (male Japanese White); settings: Oryctolagus cuniculus, 40 min, read-out: CAP: acid secretion inhibitory rate
Protocol: as §2
The acid secretion inhibitory activity in a cell level is studied. It can also be used for studying the mechanism of the effect.
ii-a) Preparation of isolated gastric fundus gland suspension
First, an isolated gastric fundic gland sample was prepared. […] Immediately thereafter, the stomach was removed and, after its pyloric and cardiac antrum were severed, incised along its greater curvature into two sheets. The gastric contents adhering to the mucosal surface was washed out with ice-cooled PBS (-) and then carefully washed therein. The gastric wall was spread on a cork board with its mucosal surface facing up and the feed and mucus thereon were completely removed with sterile gauze. The mucosa was separated therefrom by a spatula and then collected in ice-cooled PBS (-). After being washed twice with PBS (-), the mucosa was minced into 2-3 mm^3 pieces by scissors. These pieces were further washed twice with a nutrient solution. The nutrient solution comprises 132.4 mM of NaCl, 5.4 mM of KCl, 5 mM of Na2 HPO4.12H2 O, 1 mM of NaH2 PO4.2H2 O, 1.2 mM of MgSO4, 1 mM of CaCl2, 25 mM of HEPES, 2 mg/ml of glucose, and 1 mg/ml of BSA. Into 70 ml of the nutrient solution containing 1 mg/ml of collagenase, minced mucosal pieces were dispersed and intensely stirred in a conical flask with a stirrer at 37° C. for 40 to 60 minutes. During this period, 100% O2 was sprayed on the nutrient solution surface and the pH was appropriately measured such that it was immediately adjusted to pH 7.4, when the value was therebelow, with a base. The nutrient solution was added to the reaction solution so as to attain the total amount of about 200 ml. After being filtered through a mesh, the suspension was divisionally introduced into 50 ml centrifuge tubes and left for 15 minutes such that gastric fundic gland was deposited. The supernatant was repeatedly removed by an aspirator, dispersed in the nutrient solution, and then left such that the gastric fundic gland was washed three times. At this time, without using a pipette, the suspension was alternately introduced into two centrifuge tubes so as to effect dispersion. The number of cells was counted under microscope and adjusted to 1.6×10^6 cells/ml.
ii-b) [^14 C]-aminopyrine uptake test
Then, [^14 C]-aminopyrine uptake test was performed. After an Eppendorf tube was weighed, 10 μl (final concentration: 10^-5 M) of histamine dissolved in the above-mentioned nutrient solution, 10 μl (final concentration: 10^-5 M) of the test compound dissolved in DMSO, and 10 μl (final concentration: 0.05 μCi/ml) of [^14 C]-aminopyrine diluted with the nutrient solution were introduced therein and then 970 μl of the isolated gastric fundic gland suspension prepared above was added thereto. Subsequently, this mixture was shaken at 37° C. for 40 minutes at 125 cycles/minute. After being centrifuged for 30 minutes, 200 μl of its supernatant was collected into a mini-vial, while the rest was removed by an aspirator. The gland pellet was completely dried as the tube with its lid being opened was kept for one night in a drying oven at 80° C. and then the lid was closed and the weight was determined at room temperature. Then 100 μl of 1N KOH was added thereto and the tube with its lid being closed was treated at 60° C. for 1 to 2 hours so as to dissolve the pellet. Then, the contents thereof were transferred to a mini-vial. Into the mini-vial containing the supernatant or gland pellet, 4 ml of Atomlite™ was added and then the radioactivity was measured by a liquid scintillation counter. […]

gastric mucosa = assay: PD: Gastric Mucosal Integrity Test (gastric mucosal potential difference); assay type: in vivo, rat (male Crj:SD); parameters: key: 5: Same as the control with no recognizable damage at all.; 4: Though a slight PD-decreasing tendency suggesting a slight possibility of mucosal damage is found, there is no problem.; 3: Though a weak decrease in PD and a possibility of a weak mucosal damage is recognized, there is no substantial problem.; 2: Medium degree of decrease in PD is found and a mucosal damage is recognized.; 1: Heavy degree of decrease in PD is found and a remarkable mucosal damage is recognized; settings: 100 mg/kg into chamber, rats, 60 minutes
Protocol: PD: Gastric Mucosal Integrity Test
In this case, since the sample compound has a necrotizing effect, it is inappropriate as an anti-ulcer medicament.
Therefore, the gastric mucosal potential difference (PD), which reflects the integrity of the gastric mucosa, is measured so as to confirm that the sample compound has no damaging effect on gastric mucosa, which is toxicity at gastric mucosal level.
Male Crj:SD rats (7 to 8-week-old) were fasted overnight, but allowed free access to water, and then, under urethane anesthesia (1.25 g/kg, i.p.), fixed to a cork board on its back. The abdomen of each rat was incised, and a small incision was made in the forestomach. Then, the inside of the stomach was washed with physiological saline heated at 37° C. From the forestomach, along the greater curvature thereof, the stomach was incised without damaging blood vessels. After the height of the cork board was adjusted on a jack, the stomach was mounted on ex vivo chamber. The area of the gastric mucosa exposed to the inside of this chamber was 2.5 cm^2. The inside of the chamber was perfused with physiological saline warmed at 37° C. by micro tube pump. By using an agar bridge containing 3M KCl, the potential difference between the chamber and the abdominal cavity was measured by a PD meter. Here, the rectal temperature was measured to control the body temperature during the experiment. After the PD was sufficiently stabilized, the perfusate was stopped and then 100 mg/10 ml/kg of the sample compound dissolved or suspended in an aqueous solution of 0.5% sodium carboxymethyl cellulose or 0.05% Tween 80 was administered into the chamber, while PD was recorded for 60 minutes. To a control, the vehicle was administered.
The change in PD during 60 minutes after the administration of 100 mg/kg of the sample compound was collectively studied and, with reference to the positive control, classified into 5 levels as follows:
5: Same as the control with no recognizable damage at all.
3: Though a weak decrease in PD and a possibility of a weak mucosal damage is recognized, there is no substantial problem.
2: Medium degree of decrease in PD is found and a mucosal damage is recognized.
1: Heavy degree of decrease in PD is found and a remarkable mucosal damage is recognized.

[2] = system: gastric corpus mucosa cells; settings: rabbit, gastric mucosal cells, 4 h, 100 µM
in vitro = settings: rabbit, gastric mucosal cells
[3] = MTT: Cell Damaging and Protecting Effect Test; settings: rabbit, gastric mucosal cells
Helicobacter pyroli = assay: AHP: Antibacterial Activity Test Against Helicobacter pyroli (agar dilution MIC); assay type: cell-based, Helicobacter pyroli NCTC 11637; settings: for MIC: Helicobacter, NCTC11637, 168 h, HP NCTC 11637, brucella agar with 5% horse blood, 7 days, read-out: AHP: minimum inhibitory concentration (MIC)
Protocol: Antibacterial Activity Test Against Helicobacter pyroli i) Meaning The minimum inhibitory concentration (MIC) against Helicobacter pyroli (microaerophilic gram-negative bacterium which is supposed to deeply involve in pathogenesis, relapse, and recrudescence of ulcer, referred to as "HP" in the following) is measured so as to find out compounds which have antimicrobial activity against Helicobacter pyroli. ii) Method MICs were determined by the agar dilution method. The stock culture (-80° C.) of HP NCTC 11637 was thawed and cultured on tripticase soy agar supplemented with 5% sheep blood at 37° C. in an atmosphere of 5% O2, 10% CO2, and 85% N2. Grown colonies were transferred to the same plate and precultured for 3 days under the same condition. […] 10 μl of the bacterial suspension for inoculation (about 10^3 cfu) was inoculated on this plate and cultured for 7 days under the same condition as that of preculture.

[4] = 10^-5 M compound, 10^-5 M histamine, rabbit isolated gastric fundic gland, 37° C., 40 minutes

Row | SMILES | WIS: ulcer formation inhibitory rate (stress ulcer) [%] | AT: toxicity at single dose, 5 levels (Male Slc:ICR mice) | inhibition at 10 µM [1, 4] [%] | further results
1 | CC(C)=CCC/C(C)=C/COc1ccc(C(=O)NCCN2CCCCC2)cc1 [Example 3] | 79 | 4 | 100 | TAO: total acid output inhibitory rate (acid secretion in vivo): 85%; VOL: gastric juice volume inhibitory rate (acid secretion in vivo): 68%
2 | CC(C)=CCC/C(C)=C/CC/C(C)=C/COc1ccc(C(=O)NCCN2CCCCC2)cc1 [Example 10] | 47 | 4 | 98 | PD: change in gastric mucosal potential difference, 5 levels (gastric mucosa): 5
3 | CC(C)=CCCC(C)=CCOc1ccc(C(=O)NCCN2CC(C)OC(C)C2)cc1 (stereo not drawn) [Example 34] | 38 |  |  | MTT: cell damaging rate [2]: 14%
4 | CC(C)=CCC/C(C)=C/COc1ccc(C(=O)NCCN2CCN(CC(C)C)CC2)cc1 [Example 46] | 78 |  | 100 | cytotoxicity at 4 h, 100 µM (in vitro): 68%; TAO: total acid output inhibitory rate (acid secretion in vivo): 34%; VOL: gastric juice volume inhibitory rate (acid secretion in vivo): 33%
5 | CC(C)=CCC/C(C)=C/COc1ccc(C(=O)NCCN2CCN(CC(=O)N3CCCC3)CC2)cc1 [Example 55] |  |  |  | cytotoxicity at 4 h, 100 µM [3]: 27%; inhibition at 10 µM [1]: 99.2%
6 | CC(C)=CCC/C(C)=C/COc1ccc(C(=O)NCCN2CCN(c3nc4ccccc4s3)CC2)cc1 [Example 59] | 47 |  | 93 | MIC (Helicobacter pyroli): < 3.13 µg/mL; antibacterial activity against Helicobacter pyroli (Helicobacter pyroli; result in words): having an antibacterial activity against Helicobacter pyroli; cytotoxicity at 4 h, 100 µM (in vitro): 7%
7 | CC(C)Cc1cc(C(=O)NCCN2CCN(CC(C)C)CC2)ccc1OCc1ccc(F)cc1 [Example 62] | 77 | 3 | 102 | MIC (Helicobacter pyroli): < 3.13 µg/mL
